# Key:
# [1] = Fibril formation by quasielastic light-scattering spectroscopy (QLS); format: physicochemical; conditions: phosphate buffer pH 7.4, 3 samples of 10 μg/ml, 5 consecutive days
# Experimental: Fibril formation was measured in 3 equivalent samples of 10 μg/ml Aβ for 5 consecutive days. […] Nested Aβ peptides (Aβ1-15, Aβ4-18, Aβ7-21, Aβ10-24, Aβ13-27, Aβ16-30, Aβ19-33, Aβ22-36, Aβ25-39, Aβ28-42) and alanine/glycine-substituted peptides were synthesized at Biosource International (Hopkinton, Mass.). Aβ peptides used for T-cell assays were dissolved in DMSO (2 mg/ml). Glatiramer acetate (GA) was obtained at the Brigham and Women's Hospital pharmacy.
# [2] = system: Aβ1-42-reactive T-cell lines; assay: Epitope mapping / proliferation of Aβ1-42-reactive T-cell lines; format: cell-based, human; conditions: for Distribution of Aβ T-cell epitopes: Number of T-cell lines / Distribution of Aβ T-cell epitopes: percent: lines from 24 subjects, fine mapping with 15 amino acid overlapping peptides
# Experimental: Epitope specificity of these 3 T-cell lines using 5 overlapping peptides within Aβ15-42 was further investigated.
# (§1) T-cell lines were then supplemented with 10 μg/ml IL-2 after 48 hours and every 2 days thereafter until they were completely resting. T-cell proliferation was measured 72 hours after stimulation following a 12 hr incubation with [^3H]-thymidine. Supernatants were collected 48 hr after T-cell stimulation, and antigen-induced cytokine production was measured by sandwich ELISA. Recommended pairs of antibodies (coating and detecting) for IL-10 (R&D, Minneapolis, Minn.), INF-γ. Endogen, Woburn, Mass.), IL-13 (PharMingen, (San Diego, Calif.), and TGF-β (Promega, Madison, Wis.) were used according to the manufacturer's instructions. Surface and intracellular staining was performed on Aβ-reactive T-cells after stimulation. All antibodies were purchased from BD Biosciences (San Diego, Calif.) and staining was performed according to the manufacturer's instructions.
# [3] = system: Aβ-reactive T cells; assay: FACS of activation marker and cytokine expression in an Aβ-reactive T-cell line; format: cell-based, human; conditions: 30 hr after stimulation with irradiated autologous PBMCs
# Experimental: To further determine the phenotype of Aβ-reactive T cells, a representative T-cell line also was tested by FACS for Th1 and Th2 cytokine expression. […] We further asked whether the cytokine profiles represented primarily Th2 lineages by testing for the expression of INF-γ and IL-13/IL-5 in the same cells.
# as §1
# [4] = system: Aβ-reactive T-cell lines; assay: Cytokine secretion of Aβ-reactive T-cell lines (sandwich ELISA); format: cell-based, human
# Experimental: as §1
# [5] = system: popliteal draining lymph nodes (PLN) T cells; assay: Lymph node T-cell proliferation after immunization of mice with Aβ in CFA; format: cell-based, mouse
# [6] = system: APP/IFN-g Tg mice; conditions: App Tg, C57BL6, 12 days after imm.
# Experimental: To determine whether carrying the IA^s allele is sufficient to induce T-cell activation and migration to the CNS of APP-tg mice, B6SJLF1 APP-tg mice line J20, see Methods) were immunized with Aβ10-24 in CFA followed by intravenous injection of PT at the time of immunization and 48 hr later.
# APP/IFN-γ tg mice that were immunized with Aβb 10-24 were analyzed by immunohistochemistry 20 and 30 days after immunization for immune infiltrates associated with Aβ plaques.
# Immunization and measurement of immune responses: Mice were immunized by footpad injection if sacrificed on day 12, for longer periods mice were injected in the flanks. Each mouse received 100 ml of antigen (1 mg/ml), emulsified in an equal volume of complete Freund's adjuvant (CFA). Mice were also injected intravenously with 150 ng pertussis toxin at the time of immunization and 48 hours later.
# Immunohistochemistry and imaging: Cryosections (6 μm) from brains of APP-Tg+ mice were placed onto glass slides and fixed with ice-cold methanol for 2 min followed by 2% PFA at RT for 4 min. Sections were washed once with distilled water for 5 min and twice with PBS containing 0.05% Tween-20. Sections were then incubated for 1 hour at RT with blocking buffer (PBS containing 3% normal goat serum and 2% bovine serum albumin).
# [7] = system: Aβ16-30-specific T cells; assay: Proliferation of Aβ16-30-specific T cells with alanine/glycine-substituted peptides; format: cell-based, human; conditions: 72 hr
# Source text: Because the T-cell epitopes were most frequently localized to Aβ16-30, we further mapped this epitope for each of its constituent amino acids by using alanine-substituted peptides in the T-cell proliferation assay (the naturally occurring alanines at positions 21 and 30 were changed to glycines). […] Substitution of lysine-16, alanine-21, serine-26 or aspargine-27 increased T-cell proliferation by more than 2-fold (Table 4).
# In this experiment, T cells specific to Aβ16-30 were stimulated in the presence of alanine/glycine substituted peptides and autologous PBMCs. T-cell proliferation was measured by [^3H]-thymidine incorporation 72 hr after stimulation. Numbers represent average cpm of each antigen concentration tested (average cpm in the absence of antigen was 911).
# as §1
# [8] = system: peripheral blood mononuclear cells; assay: Primary stimulation of PBMCs with αCD3/CD28 or glatiramer acetate ([3H]thymidine proliferation); format: cell-based, human
# Experimental: In this study, αCD3/CD28 stimulation was measured as follows. PBMCs were cultured with 1 μg/ml soluble αCD3 plus αCD28 or cell culture medium alone, pulsed with [^3H] thymidine on day 2 after stimulation and incorporation measured 12 hr later. For glatiramer acetate stimulation, cells were cultured with 50 μg/ml GA or cell culture medium alone, and pulsed with [^3H] thymidine on day 6. Mean cpm=average cpm for each group. The average cpm for cells with culture medium alone was 825. […] Proliferative responses were calculated from these subjects. Two-tailed p values were calculated for the mean cpm using the alternate Welch test, assuming Gaussion populations with unequal SD's.
# Primary stimulation with αCD3/CD28 or GA: For […] stimulation frozen PBMCs (2×10^5 cells/well) were cultured in 5 wells (U-bottom 96-well plate) in the presence of 1 μg/ml soluble αCD3 plus αCD28 and in additional 5 wells with cell culture medium alone, pulsed with […] thymidine on day 2 after stimulation and incorporation measured 12 hr later. For glatiramer acetate stimulation, fresh PBMCs were cultured in 5 wells with 50 μg/ml GA or cell culture medium alone, pulsed with [^3H] thymidine on day 6, and incorporation measured 12 hr later.
# [9] = system: microglia and resting Aβ-reactive T cells; assay: Co-culture of microglia and resting Aβ-reactive T cells; format: cell-based, mouse
# Experimental: Microglial cells were sorted and cultured for 12 hours in the presence and absence of IFN-γ. […] Representative areas were then extracted (shown in higher power) and analyzed for the pattern of T-cell migration. In the IFN-γ-treated culture, T cells were attracted to microglial cells, indicated by the sharp turns between the cells (FIG. 11B), and made a significant higher average number of contacts with the microglial cells, as compared with the untreated microglial culture (about 2.1 versus about 0.5, P<0.001) (FIG. 11B). […] These contacts are short time synapse formations characteristics of an early event during T-cell stimulation.
# Preparation of cultures of mouse brain microglia: Glial cultures were prepared as described (JI). Briefly, cells were dissociated from the cerebral cortex of 1-day-old C57BL/6 mice after careful removal of meninges tissues, and were cultured in poly-D-lysine (PDL)-coated tissue culture flasks in medium supplemented with Dulbecco's modified Eagle's medium (DMEM), 4 mM L-glutamine, 50 U/ml penicillin, […] streptomycin, 10 mM HEPES, 1 mM sodium pyruvate, 10 mM nonessential amino acids, […] 2-mercaptoethanol (Sigma, St Louis, Mo.), and 10% fetal calf serum (FCS). On day 7, cultures were incubated with 100 pg/ml IFN-γ for 72 hours and on day 10, the entire glial culture was trypsinized and microglia were labeled with PE-conjugated anti-CD11b and sorted using FACS Vantage SE Cell Sorter.
# Aβ uptake and T-cell stimulation by microglia: PE-labeled microglial cells were cultured in MatTek culture dishes (Ashland, Mass.) for 24 hours in the DMEM-FCS medium. […] Live images were then taken for 30 min with 20 sec intervals by a Zeiss Laser Scanning Confocal Microscope and analyzed by 3D analysis software (Zeiss, Thornwood, N.Y.). For the microglia-T-cell coculture experiments, Aβ-reactive T cells were generated as described and labeled with Alexa Flour 488-conjugated anti-mouse CD4. Resting cells were added to the microglia culture together with Aβ1-42.
# [10] = system: Primary cultures of microglia; assay: Aβ uptake and motility of microglia treated with IFN-γ (live confocal imaging); format: cell-based, mouse
# Experimental: The meningoencephailis we observed was completely dependent on expression of IFN-g in the CNS. […] We therefore established an in vitro system to examine early events associated with microglia activation by IFN-γ and their contribution to uptake of Aβ and specific T-cell activation. Primary cultures of microglia were prepared and live images were obtained by a confocal microscope, as described in Methods. FITC-labeled Aβ was added to the culture for 30 min, cultures were carefully washed, and live images were taken for 30 minutes. […] (FIG. 10B).
# Preparation of cultures of mouse brain microglia: Glial cultures were prepared as described (JI). […]
# Aβ uptake and T-cell stimulation by microglia: PE-labeled microglial cells were cultured in MatTek culture dishes (Ashland, Mass.) for 24 hours in the DMEM-FCS medium. […] Live images were then taken for 30 min with 20 sec intervals by a Zeiss Laser Scanning Confocal Microscope and analyzed by 3D analysis software (Zeiss, Thornwood, N.Y.). […]
# [11] = αCD3/CD28 1 μg/ml pulsed day 2, GA 50 μg/ml pulsed day 6
substance,measurement,setting,value
"Aβ1-40: Aβ1-40 synthetic peptide, one of the two major forms of Aβ protein [reference compound]",fibril formation / aggregation,[1],Slight aggregation was detected in only one sample
same,reactivity of Aβ28-42-reactive T-cell lines,[2],unreactive
"Aβ15-42: overlapping C-terminal fragment of Aβ1-42, residues 15-42 (QKLVFFAEDVGSNKGAIIGLMVGGVVIA; Amyloid-beta protein 42; UniProt P05067 686-713, looked up, fragment)",expression of the CD69 activation marker on CD4+ cells,[3],increased expression
same,Th2 response,[4],elicit a Th2 response
same,Distribution of Aβ T-cell epitopes: Number of T-cell lines,[2],22
same,Distribution of Aβ T-cell epitopes: percent,[2],92%
"Aβ16-30: nested Aβ peptide, residues 16-30 (KLVFFAEDVGSNKGA; Amyloid-beta protein 42; UniProt P05067 687-701, looked up, fragment)",response compared with that induced by Aβ1-42,"[5]; 10-24 in SJL, 16-30 in C57BL6 mice",equivalent
same,T-cell proliferation with overlapping peptides,"[5]; C57BL6 mice, immunized with human Aβ1-42",induced proliferation
same,recall proliferation of LN-derived T cells in vitro,[5]; SJL mice immunized with human Aβ10-24,not
same,CD4 (cells/mm^2 ± SEM),[6],0 cells/mm^2
same,CD11b (cells/mm^2 ± SEM),[6],0 cells/mm^2
same,Th2 response,[4],elicit a Th2 response
same,"T-cell proliferation, average cpm",[7]; Peptide 0.1 μg/ml,1648 cpm
same,"T-cell proliferation, average cpm",[7]; Peptide 1 μg/ml,6780 cpm
same,"T-cell proliferation, average cpm",[7]; Peptide 10 μg/ml,17339 cpm
same,frequency of positive T-cell lines induced,[2],highest frequency
same,Distribution of Aβ T-cell epitopes: Number of T-cell lines,[2],10
same,Distribution of Aβ T-cell epitopes: percent,[2],42%
Glatiramer acetate,subjects that showed proliferation,"[8]; all groups tested, 50 μg/ml GA",90%
same,"Proliferation, Mean cpm ± SEM, Adult",[8]; [11],"35,342 ± 7,893 cpm"
same,"Proliferation, Mean cpm ± SEM, Alzheimer's disease subjects",[8]; [11],"19,403 ± 3,078 cpm"
same,"Proliferation, Mean cpm ± SEM, Elderly",[8]; [11],"27,311 ± 4,781 cpm"
IFN-γ: cytokine used to treat microglial cultures (100 pg/ml),average number of contacts of T cells with the microglial cells,[9]; IFN-γ-treated culture,about 2.1
same,motility of the T cells,[9]; IFN-γ-treated versus untreated culture,significant increase
same,density of T cells on microglia,"[9]; IFN-γ-treated versus untreated microglia, Aβ1-42 as antigen",higher density
same,Aβ uptake by microglia,"[10]; pretreated versus untreated cultures, FITC-labeled Aβ 30 min",significantly enhanced
same,filipodia formation (microglia motility),[10]; treated versus untreated cultures,longer and occurred with higher frequency
